What follows are compounds tested against Non-receptor tyrosine-protein kinase TYK2 (Homo sapiens, UniProt P29597).
Non-receptor tyrosine-protein kinase TYK2, sequence (P29597 whole entry): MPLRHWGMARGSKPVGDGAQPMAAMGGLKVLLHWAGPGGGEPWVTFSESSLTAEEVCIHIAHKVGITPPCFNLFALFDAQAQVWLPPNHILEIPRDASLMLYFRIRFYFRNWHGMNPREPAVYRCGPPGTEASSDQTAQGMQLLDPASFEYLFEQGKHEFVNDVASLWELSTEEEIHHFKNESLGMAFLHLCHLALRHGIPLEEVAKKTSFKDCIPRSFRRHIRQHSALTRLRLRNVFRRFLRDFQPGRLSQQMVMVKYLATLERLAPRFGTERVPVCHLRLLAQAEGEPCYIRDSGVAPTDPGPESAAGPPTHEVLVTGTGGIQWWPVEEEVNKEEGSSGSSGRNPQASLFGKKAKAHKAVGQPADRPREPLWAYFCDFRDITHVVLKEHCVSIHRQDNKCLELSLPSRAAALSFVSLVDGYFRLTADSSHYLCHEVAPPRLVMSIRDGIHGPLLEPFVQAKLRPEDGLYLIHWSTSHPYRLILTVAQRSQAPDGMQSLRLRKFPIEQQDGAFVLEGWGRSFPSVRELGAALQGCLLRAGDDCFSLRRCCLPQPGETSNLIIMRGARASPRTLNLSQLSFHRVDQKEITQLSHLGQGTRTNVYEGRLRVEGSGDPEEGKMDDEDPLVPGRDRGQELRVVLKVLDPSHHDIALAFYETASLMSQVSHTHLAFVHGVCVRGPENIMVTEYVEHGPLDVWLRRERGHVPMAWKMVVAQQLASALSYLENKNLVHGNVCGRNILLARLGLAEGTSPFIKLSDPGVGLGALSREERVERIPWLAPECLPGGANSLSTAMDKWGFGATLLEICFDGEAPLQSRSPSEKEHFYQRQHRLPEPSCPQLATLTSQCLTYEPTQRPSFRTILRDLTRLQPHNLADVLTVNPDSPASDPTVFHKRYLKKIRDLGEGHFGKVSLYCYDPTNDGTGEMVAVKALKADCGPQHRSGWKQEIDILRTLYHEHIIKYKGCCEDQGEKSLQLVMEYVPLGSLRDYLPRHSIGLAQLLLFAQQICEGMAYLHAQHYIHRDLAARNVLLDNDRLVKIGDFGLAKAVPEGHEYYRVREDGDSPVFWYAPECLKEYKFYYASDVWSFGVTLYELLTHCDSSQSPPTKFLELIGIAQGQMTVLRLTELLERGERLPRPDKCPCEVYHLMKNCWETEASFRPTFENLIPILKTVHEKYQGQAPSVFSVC
Description: Inhibition of TYK2 (unknown origin) using GFP-STAT1 as substrate incubated for 1 hrs by TR-FRET assay

| Compound | IC50 |
| --- | --- |
| Clc1ccccc1CN1CCC(Nc2c(-c3cc[nH]c3)cnc3[nH]ccc23)CC1 | > 10 µM |
| Clc1cccc(CN2CCC(Nc3c(-c4cc[nH]n4)cnc4[nH]ccc34)CC2)c1 | > 10 µM |
| Clc1cccc(CN2CCC(Nc3c(-c4cn[nH]c4)cnc4[nH]ccc34)CC2)c1 | > 10 µM |
| N#Cc1ccc(CN2CCC(Nc3c(-c4cc[nH]c4)cnc4[nH]ccc34)CC2)cc1 | > 10 µM |
| COc1cccc(CN2CCC(Nc3c(-c4cn[nH]c4)cnc4[nH]ccc34)CC2)c1 | > 10 µM |
| N#Cc1ccccc1CN1CCC(Nc2c(-c3cc[nH]c3)cnc3[nH]ccc23)CC1 | 4.15 µM |
| N#Cc1cccc(CN2CCC(Nc3c(-c4cc[nH]n4)cnc4[nH]ccc34)CC2)c1 | > 10 µM |
| Clc1ccccc1CN1CCC(Nc2c(-c3cc[nH]n3)cnc3[nH]ccc23)CC1 | > 10 µM |
| Clc1ccccc1CN1CCC(Nc2c(-c3cn[nH]c3)cnc3[nH]ccc23)CC1 | > 10 µM |
| N#Cc1ccccc1CN1CCC(Nc2c(-c3cn[nH]c3)cnc3[nH]ccc23)CC1 | 0.0041 µM |
| Clc1ccc(CN2CCC(Nc3c(-c4cc[nH]n4)cnc4[nH]ccc34)CC2)cc1 | > 10 µM |
| Clc1cccc(CN2CCC(Nc3c(-c4cc[nH]c4)cnc4[nH]ccc34)CC2)c1 | > 10 µM |
| N#Cc1ccccc1CN1CCC(Nc2c(-c3cc[nH]n3)cnc3[nH]ccc23)CC1 | 0.0013 µM |
| Clc1ccc(CN2CCC(Nc3c(-c4cn[nH]c4)cnc4[nH]ccc34)CC2)cc1 | > 10 µM |
| COc1cccc(CN2CCC(Nc3c(-c4cc[nH]n4)cnc4[nH]ccc34)CC2)c1 | > 10 µM |
| N#Cc1cccc(CN2CCC(Nc3c(-c4cc[nH]c4)cnc4[nH]ccc34)CC2)c1 | > 10 µM |
| N#Cc1cccc(CN2CCC(Nc3c(-c4cn[nH]c4)cnc4[nH]ccc34)CC2)c1 | > 10 µM |
| Clc1ccc(CN2CCC(Nc3c(-c4cc[nH]c4)cnc4[nH]ccc34)CC2)cc1 | > 10 µM |
| N#Cc1ccc(CN2CCC(Nc3c(-c4cc[nH]n4)cnc4[nH]ccc34)CC2)cc1 | > 10 µM |
| N#Cc1ccc(CN2CCC(Nc3c(-c4cn[nH]c4)cnc4[nH]ccc34)CC2)cc1 | > 10 µM |
| COc1cccc(CN2CCC(Nc3c(-c4cc[nH]c4)cnc4[nH]ccc34)CC2)c1 | 0.504 µM |

From ChEMBL document CHEMBL5505972, “Design, synthesis and evaluation of C-5 substituted pyrrolopyridine derivatives as potent Janus Kinase 1 inhibitors with excellent selectivity” (Eur J Med Chem, 2024)
